Source: ChEMBL document CHEMBL5154929, “Optimization of the Natural Product Calothrixin A to Discover Novel Dual Topoisomerase I and II Inhibitors with Improved Anticancer Activity” (J Med Chem, 2022)
Calls of active or inactive are those of the source. The rule behind the calls is not given here.

Key:
SH-SY5Y = assay: Cytotoxicity against human SH-SY5Y cells expressing low level of topoisomerase I/II measured after 72 hrs by MTT assay; format: functional, cell-based
MDA-MB-231 = assay: Cytotoxicity against human MDA-MB-231 cells expressing high level of topoisomerase I/II measured after 72 hrs by MTT assay; format: functional, cell-based; settings: MDA-MB-231, 72 h
HCT-116 [1] = assay: Cytotoxicity against human HCT-116 cells expressing high level of topoisomerase I/II measured after 72 hrs by MTT assay; format: functional, cell-based; settings: HCT-116, 72 h
MCF7 = assay: Cytotoxicity against human MCF7 cells expressing high level of topoisomerase I/II measured after 72 hrs by MTT assay; format: functional, cell-based; settings: MCF7, 72 h
A-375 [2] = assay: Cytotoxicity against human A-375 cells expressing high level of topoisomerase I/II measured after 72 hrs by MTT assay; format: functional, cell-based; settings: A-375, 72 h
A549 = assay: Cytotoxicity against human A549 cells expressing high level of topoisomerase I/II measured after 72 hrs by MTT assay; format: functional, cell-based; settings: A549, 72 h
[3] = Cytotoxicity against human L02 cells measured after 72 hrs by MTT assay; format: toxicity, cell-based
[4] = Cytotoxicity against human HEK293T cells measured after 72 hrs by MTT assay; format: toxicity, cell-based, HEK-293T
[5] = target: T1, DNA topoisomerase 1 (Homo sapiens) (UniProt P11387); assay: Inhibition of DNA topoisomerase I (unknown origin) relaxation activity at 100 uM incubated for 30 mins by chemiDoc system
T1 sequence (whole entry): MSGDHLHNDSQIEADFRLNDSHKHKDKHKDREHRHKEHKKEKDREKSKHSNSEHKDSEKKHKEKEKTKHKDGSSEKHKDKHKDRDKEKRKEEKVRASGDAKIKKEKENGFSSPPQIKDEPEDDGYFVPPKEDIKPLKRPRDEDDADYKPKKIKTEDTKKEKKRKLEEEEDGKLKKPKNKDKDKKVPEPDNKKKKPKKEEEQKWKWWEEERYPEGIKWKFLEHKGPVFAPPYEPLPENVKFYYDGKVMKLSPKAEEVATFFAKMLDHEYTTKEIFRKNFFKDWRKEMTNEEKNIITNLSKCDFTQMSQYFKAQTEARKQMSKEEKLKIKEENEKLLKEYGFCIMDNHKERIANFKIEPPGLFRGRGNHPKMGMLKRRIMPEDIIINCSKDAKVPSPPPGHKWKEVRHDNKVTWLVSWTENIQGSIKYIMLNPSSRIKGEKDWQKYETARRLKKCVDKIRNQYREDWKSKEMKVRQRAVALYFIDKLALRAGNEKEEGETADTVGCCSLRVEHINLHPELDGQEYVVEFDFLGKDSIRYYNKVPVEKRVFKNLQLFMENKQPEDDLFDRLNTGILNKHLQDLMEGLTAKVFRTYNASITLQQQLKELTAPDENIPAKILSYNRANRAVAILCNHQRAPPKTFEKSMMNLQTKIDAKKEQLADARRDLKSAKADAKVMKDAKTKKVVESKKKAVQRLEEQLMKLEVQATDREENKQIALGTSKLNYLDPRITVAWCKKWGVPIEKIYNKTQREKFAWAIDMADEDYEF

[6] = Volume of distribution in Kunming mouse plasma at 10 mg/kg, iv administered as single dose measured after 5 to 360 mins by HPLC analysis; format: ADME, organism-based; settings: time 5-360 min
[7] = Half life in Kunming mouse plasma at 10 mg/kg, iv administered as single dose measured after 5 to 360 mins by HPLC analysis; format: ADME, organism-based; settings: time 5-360 min
[8] = Tmax in Kunming mouse plasma at 10 mg/kg, iv administered as single dose measured after 5 to 360 mins by HPLC analysis; format: ADME, organism-based; settings: time 5-360 min
[9] = Cmax in Kunming mouse plasma at 10 mg/kg, iv administered as single dose measured after 5 to 360 mins by HPLC analysis; format: ADME, organism-based; parameters: dose 10 mg/kg, time upper 360 min, time lower 5 min, route iv
[10] = AUC in Kunming mouse plasma at 10 mg/kg, iv administered as single dose measured after 5 to 360 mins by HPLC analysis; format: ADME, organism-based; parameters: time upper 360 min, time lower 5 min, dose 10 mg/kg, route iv
[11] = Microsomal stability in mouse liver microsomes assessed as clearance measured at 2 ug/ml upto 60 mins in presence of NADPH generating system and UGT incubation system by phase II metabolic stability kit method; format: ADME, Microsome; settings: dose 2 µg/ml, read-out: CLH
[12] = Microsomal stability in mouse liver microsomes assessed as half life measured at 2 ug/ml upto 60 mins in presence of NADPH generating system and UGT incubation system by phase II metabolic stability kit method; format: ADME, Microsome; settings: dose 2 µg/ml
[13] = Metabolic stability in mouse plasma upto 5 hrs by HPLC-UV analysis; format: ADME, cell-free
[14] = Selectivity index, ratio of IC50 for human L02 cells to IC50 for human A-375 cells; format: toxicity; settings: L02 cells and A-375 cells, read-out: Ratio IC50
HCT-116 [15] = assay: Antiproliferative activity against doxorubicin resistant human HCT-116 cells measured after 72 hrs by MTT assay; format: functional, cell-based; settings: HCT-116, 72 h
HCT-116 [16] = assay: Antiproliferative activity against doxorubicin sensitive human HCT-116 cells measured after 72 hrs by MTT assay; format: functional, cell-based; settings: HCT-116, 72 h
A-375 [17] = assay: Induction of cell cycle arrest in human A-375 cells assessed as accumulation of cells at G1 phase at 80 nM incubated for 24 hrs by PI based flow cytometric analysis (RVB = 52.94%); format: functional
A-375 [18] = assay: Induction of cell cycle arrest in human A-375 cells assessed as accumulation of cells at S phase at 80 nM incubated for 24 hrs by PI based flow cytometric analysis (RVB = 26.73%); format: functional
A-375 [19] = assay: Induction of cell cycle arrest in human A-375 cells assessed as accumulation of cells at G2 phase at 80 nM incubated for 24 hrs by PI based flow cytometric analysis (RVB = 20.34%); format: functional
[20] = Clearance in Kunming mouse plasma at 10 mg/kg, iv administered as single dose measured after 5 to 360 mins by HPLC analysis; format: ADME, organism-based; settings: time 5-360 min
A-375 [21] = assay: In vivo antitumor activity against human A-375 cells xenografted in BALB/c nude mouse assessed as shrinkage of tumor tissue treated after 7 days of tumor implantation on right flank subcutaneously at 10 mg/kg, iv administered once per 2 days for 14 days measured once every two days; format: functional, organism-based; settings: time 14.0 day
A-375 [22] = assay: In vivo antitumor activity against human A-375 cells xenografted in BALB/c nude mouse assessed as decrease in tumor weight treated after 7 days of tumor implantation on right flank subcutaneously at 10 mg/kg, iv administered once per 2 days for 14 days measured once every two days; format: functional, organism-based; settings: time 14.0 day
[23] = Toxicity in BALB/c nude mouse xenografted with human A-375 cells assessed as body weight loss treated after 7 days of tumor implantation on right flank subcutaneously at 10 mg/kg, iv administered once per 2 days for 14 days measured once every two days; format: organism-based; settings: in vivo, 336 h, time 14 day
[24] = Toxicity in BALB/c nude mouse xenografted with human A-375 cells assessed as tolerability treated after 7 days of tumor implantation on right flank subcutaneously at 10 mg/kg, iv administered once per 2 days for 14 days measured once every two days; format: organism-based; settings: in vivo, 336 h, time 14 day
A-375 [25] = assay: (§1) In vivo induction of apoptosis in human A-375 cells xenografted in BALB/c nude mouse treated after 7 days of tumor implantation on right flank subcutaneously at 10 mg/kg, iv administered once per 2 days for 14 days by measuring TUNEL positive cells under a light microscope; format: functional, organism-based; settings: time 14.0 day
A-375 [26] = assay: as §1, with “mouse assessed as increase in C-caspase-3 level” for “mouse”; format: functional, organism-based; settings: time 14.0 day
A-375 [27] = assay: as §1, with “mouse assessed as […]” for “mouse”; format: functional, organism-based; settings: time 14.0 day
[28] = Aqueous solubility of the compound in saline equilibrating for 24 hrs by HPLC analysis; format: physicochemical
[29] = target: DNA topoisomerase 2-alpha (Homo sapiens) (UniProt P11388); assay: Inhibition of human DNA topoisomerase II-alpha relaxation activity at 100 uM incubated for 30 mins by chemiDoc system
[30] = target: DNA topoisomerase 2-alpha (Homo sapiens) (UniProt P11388); assay: Poison activity at human topoisomerase II-alpha assessed as stabilization of enzyme-DNA cleavage complex by measuring nicked DNA formation at 100 uM after 60 mins by agarose gel electrophoresis method

Chain of DNA topoisomerase 2-alpha (Homo sapiens) (P11388 whole entry): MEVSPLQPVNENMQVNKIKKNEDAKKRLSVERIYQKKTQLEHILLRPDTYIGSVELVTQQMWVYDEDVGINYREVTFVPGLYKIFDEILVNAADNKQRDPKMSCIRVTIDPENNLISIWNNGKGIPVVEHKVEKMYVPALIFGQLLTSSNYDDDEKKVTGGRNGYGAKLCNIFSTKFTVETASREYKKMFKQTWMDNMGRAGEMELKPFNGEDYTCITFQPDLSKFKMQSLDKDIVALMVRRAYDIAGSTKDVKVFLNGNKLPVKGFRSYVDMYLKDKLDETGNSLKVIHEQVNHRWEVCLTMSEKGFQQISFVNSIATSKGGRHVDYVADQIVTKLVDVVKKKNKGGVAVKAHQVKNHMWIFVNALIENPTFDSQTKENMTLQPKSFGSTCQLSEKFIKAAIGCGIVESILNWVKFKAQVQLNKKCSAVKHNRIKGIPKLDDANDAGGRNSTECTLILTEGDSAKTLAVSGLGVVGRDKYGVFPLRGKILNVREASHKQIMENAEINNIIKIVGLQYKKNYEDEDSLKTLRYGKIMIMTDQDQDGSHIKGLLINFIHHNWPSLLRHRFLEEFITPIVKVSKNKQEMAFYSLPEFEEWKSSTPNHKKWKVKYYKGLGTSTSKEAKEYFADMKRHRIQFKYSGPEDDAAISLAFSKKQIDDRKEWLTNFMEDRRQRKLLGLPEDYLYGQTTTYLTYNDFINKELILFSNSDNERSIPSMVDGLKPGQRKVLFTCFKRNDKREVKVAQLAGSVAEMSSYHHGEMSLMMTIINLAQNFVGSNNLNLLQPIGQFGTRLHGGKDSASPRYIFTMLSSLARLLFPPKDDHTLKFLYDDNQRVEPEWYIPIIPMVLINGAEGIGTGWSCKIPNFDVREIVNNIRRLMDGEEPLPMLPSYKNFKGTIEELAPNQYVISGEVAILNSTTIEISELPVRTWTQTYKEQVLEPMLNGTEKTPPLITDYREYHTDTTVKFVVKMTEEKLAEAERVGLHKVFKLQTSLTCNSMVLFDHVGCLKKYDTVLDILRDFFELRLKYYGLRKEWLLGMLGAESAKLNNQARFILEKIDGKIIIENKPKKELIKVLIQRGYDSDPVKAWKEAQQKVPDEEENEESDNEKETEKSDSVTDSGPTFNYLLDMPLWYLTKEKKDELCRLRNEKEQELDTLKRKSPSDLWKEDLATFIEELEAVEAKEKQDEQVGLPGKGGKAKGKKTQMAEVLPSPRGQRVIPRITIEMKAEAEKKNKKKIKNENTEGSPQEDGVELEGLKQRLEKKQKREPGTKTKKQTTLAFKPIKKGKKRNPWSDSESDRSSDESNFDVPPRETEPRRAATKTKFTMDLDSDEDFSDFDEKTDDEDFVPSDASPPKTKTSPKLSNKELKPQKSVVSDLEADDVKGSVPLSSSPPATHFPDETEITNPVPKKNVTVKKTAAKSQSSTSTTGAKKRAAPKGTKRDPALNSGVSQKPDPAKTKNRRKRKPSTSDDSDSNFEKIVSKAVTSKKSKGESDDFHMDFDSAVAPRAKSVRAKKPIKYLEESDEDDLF

Row | inhibition [5] | IC50 (HCT-116 [15]) [nM] | IC50 (HCT-116 [16]) [nM] | SMILES | IC50 (SH-SY5Y) [nM] | IC50 (MDA-MB-231) [nM] | IC50 (HCT-116 [1]) [nM] | IC50 (MCF7) [nM] | IC50 (A-375 [2]) [nM] | IC50 (A549) [nM] | IC50 at 72 h [3] [nM] | IC50 at 72 h [4] [nM] | further results
1 | Active | – | – | CN(C)CCCCn1c2c(c3ccccc31)C(=O)c1c[n+]([O-])c3ccccc3c1C2=O | 250 | 350 | 450 | 220 | 470 | 310 | 300 | 520 | –
2 | Active | – | – | CN1CCN(CCCCn2c3c(c4ccccc42)C(=O)c2c[n+]([O-])c4ccccc4c2C3=O)CC1 | 100 | 110 | 10 | 100 | 30 | 90 | 80 | 100 | inhibition [29]: Active; Activity [30]: Active
3 | Active | – | – | O=C1c2c[n+]([O-])c3ccccc3c2C(=O)c2c1c1ccccc1n2CCCCN1CCNCC1 | 1240 | 3310 | 700 | 12000 | 460 | 540 | 1380 | 760 | –
4 | Active | – | – | CN1CCN(CCCCCn2c3c(c4ccccc42)C(=O)c2c[n+]([O-])c4ccccc4c2C3=O)CC1 | 830 | 2270 | 1220 | 1260 | 1710 | 870 | 1640 | – | –

The remaining lines, values behind:

Row | SMILES | inhibition [5] | IC50 (HCT-116 [15]) [nM] | IC50 (HCT-116 [16]) [nM] | IC50 (SH-SY5Y) [nM] | IC50 (MDA-MB-231) [nM] | IC50 (HCT-116 [1]) [nM] | IC50 (MCF7) [nM] | IC50 (A-375 [2]) [nM] | IC50 (A549) [nM] | IC50 at 72 h [3] [nM] | IC50 at 72 h [4] [nM] | further results
5 | COc1cc([C@@H]2c3cc4c(cc3[C@@H](O[C@@H]3O[C@@H]5CO[C@@H](C)O[C@H]5[C@H](O)[C@H]3O)[C@H]3COC(=O)[C@H]23)OCO4)cc(OC)c1O [ETOPOSIDE] | – | 3520 | 370 | 890 | 510 | 380 | 790 | 280 | 600 | 1220 | 1390 | Vd [6]: 0.432 L/kg; half-life [7]: 45 min; Tmax [8]: 5 min; Cmax [9]: 17700 ng/mL; AUC [10]: 6830 ng·h/mL; microsomal CLint at 2 ug/ml [11]: 66 µL/min/mg; half-life at 2 ug/ml [12]: 21 min; Stability [13]: Stable; selectivity ratio [14]: < 5; Activity (A-375 [17]): 56.15%; Activity (A-375 [18]): 31.79%; Activity (A-375 [19]): 12.07%; clearance [20]: 7 mL/min/kg; Activity (A-375 [21]): Active; Activity (A-375 [22]): Active; Activity [23]: Toxic; Activity [24]: Toxic; Activity (A-375 [25]): Active; Activity (A-375 [26]): Active; Activity (A-375 [27]): Active
6 | O=C1c2c[n+]([O-])c3ccccc3c2C(=O)c2c1c1ccccc1n2Cc1cn([C@H]2C[C@H](O)[C@@H](CO)O2)nn1 | – | – | – | 620 | 580 | 120 | 530 | 390 | 350 | 280 | 3600 | solubility at 24 h [28]: > 5000 µg/mL
7 | O=C1c2c[n+]([O-])c3ccccc3c2C(=O)c2[nH]c3ccccc3c21 [CALOTHRIXIN A] | Active | 810 | 650 | 1380 | 480 | 620 | 540 | 660 | 320 | 400 | 890 | solubility at 24 h [28]: < 5 µg/mL; Activity (A-375 [17]): 56.28%; Activity (A-375 [18]): 33.26%; Activity (A-375 [19]): 10.46%
8 | COc1cccc2c1C(=O)c1c(O)c3c(c(O)c1C2=O)C[C@@](O)(C(=O)CO)C[C@@H]3O[C@H]1C[C@H](N)[C@H](O)[C@H](C)O1 [DOXORUBICIN] | – | 2050 | 290 | 800 | 810 | 340 | – | 260 | – | – | – | –
9 | CC(=O)OC[C@H]1O[C@@H](n2cc(Cn3c4c(c5ccccc53)C(=O)c3c[n+]([O-])c5ccccc5c3C4=O)nn2)C[C@@H]1OC(C)=O | – | – | – | > 500 | 550 | 120 | 550 | 140 | 1830 | 350 | 2540 | –
10 | CC(=O)OC[C@H]1O[C@@H](n2cc(Cn3c4c(c5ccccc53)C(=O)c3c[n+]([O-])c5ccccc5c3C4=O)nn2)[C@H](OC(C)=O)[C@@H]1OC(C)=O | – | – | – | 1900 | 600 | 650 | 460 | 150 | 1160 | 270 | 900 | –
